Source: PMC5844530, “Fosmetpantotenate (RE-024), a phosphopantothenate replacement therapy for pantothenate kinase-associated neurodegeneration: Mechanism of action and efficacy in nonclinical models” (PLoS ONE, 2018)
“And” between values parts separate entries of the source, which are not always exact repeats. Identical values can stand only once.

How the values were obtained:
[1] = Metabolic stability in human liver microsomes; type: in vitro ADME; conditions: pooled liver microsomes
Procedure: (§1) Metabolic stability in blood and liver microsomes: Fosmetpantotenate or its individual diastereomers (5 μM, n = 2, 37°C) were incubated in mouse, rat, cynomolgus monkey, and human whole blood. Samples (50 μL) were taken at 0, 5, 15, 30, and 60 min. Incubations of fosmetpantotenate or its individual diastereomers (1 μM, n = 2, 37°C) in pooled liver microsomes (0.25 mg protein/mL in 0.1 M phosphate buffer pH 7.4) were initiated with the addition of nicotinamide adenine dinucleotide phosphate (NADPH; 1 mM). Aliquots (100 μL) were obtained at 0, 5, 10, 20, and 40 min and added to 150 μL of 0.1% formic acid in acetonitrile-containing carbamazepine (0.5 μM) as an analytical internal standard, centrifuged, and the supernatants analyzed by LC-MS/MS.
Bioanalysis for determinations of analyte stability: Samples were analyzed using a benchtop tandem quadrupole detector (TQD) mass spectrometer (Waters Ltd, Centennial Park, Hertfordshire). […] Suitable retention and peak shape with separation of the 2 diastereomers were obtained. The chromatography column was a Phenomenex-Kinetex XB C18 (2.10 x 50 mm; 2.6 μm), with a 0.7 mL/min flow rate and a 2 μL injection volume. […]
The percent of compound remaining was determined from the MRM area response in each sample relative to that in the T = 0 samples (normalized for internal standard). […]

[2] = test system: PanK2 knockdown cells (acetylated tubulin); experiment: Western blot analysis of acetylated tubulin; type: cell-based, human; conditions: for Tubulin Acetylation (fold of control): mean ± SD of 3 independent experiments, β-actin normalization; for Acetyl tubulin level (fold over vehicle): single experiments Exp1 (n=1), Exp2 (n=3), Exp3 (n=3), listed as RE-024; for Acetyl tubulin (quantification) / Acetyl tubulin Normalized (to actin): 1 µM fosmetpantotenate, replicates 1-2
Procedure: After incubation, the cells were lysed in RIPA buffer containing 300 mM NaCl, 10 mM Tris HCl pH 8.0, 10 mM KCl, 1 mM ethylenediaminetetraacetic acid (EDTA), 1% Nonidet-P40, 1% sodium deoxycholate, 0.1% SDS, 1 mM phenylmethanesulfonyl fluoride, and protease inhibitor cocktail (11697498001, Roche, Indianapolis, IN), and sonicated on ice with a Branson 450 sonicator through 2 cycles of ten 2s pulses (1 min pause between cycles). Total protein concentration was determined using a Bio-Rad Protein Assay (500–0006, Biorad, Hercules, CA). Cell extracts were subjected to sodium dodecyl sulfate polyacrylamide gel electrophoresis (SDS-PAGE) analysis (4–12%, NP0335BOX, Life Technologies, Great Island, NY) and transferred to a nitrocellulose membrane (10401396, Whatman, Maidstone, UK). Immunostaining was accomplished by overnight incubation with primary antibodies followed by 1 h of incubation with dye-conjugated secondary antibodies according to the manufacturer’s instructions. Protein detection was achieved using an Infrared Odyssey system (LiCor, Lincoln, NE). Densitometric analysis of western blots was performed using ImageJ software; the statistical significance was determined using a t-test. Actin was used as a normalization probe.

[3] = Microdialysis (brain striatal dialysate) in C57Bl6 mice; conditions: for Fosmetpantotenate Total Concentration in Mouse Striatal Dialysate (Corrected for Dilution): individual mice, non-fasted male C57/Bl6; for Fosmetpantotenate Total Concentration in Mouse Striatal Dialysate (Corrected for Dilution), Mean: mean of 8 mice
Procedure: Mice were anesthetized using isoflurane (2%, 800 mL/min O2).
For oral dosing experiments, MetaQuant microdialysis probes (regenerated cellulose membrane, BrainLink, the Netherlands) were inserted into the striatum (3 mm exposed surface). Coordinates for the tips of the probes for mice were anterior-posterior (AP) = +0.8 mm from bregma, lateral (L) = -1.7 mm from midline, and ventral (V) = -4.0 mm from dura, the toothbar set at 0 mm.
Microdialysis animal dosing and sample collection: Adult non-fasted male C57Bl6 mice (20–29 g; Harlan Laboratories, Livermore, CA), and Macaca fascicularis (4–9 kg, 3–6 yr old) were used for the experiments. For oral dosing, fosmetpantotenate was formulated as a solution in 20% hydroxypropyl-beta-cyclodextrin in 50 mM citrate buffer in water pH 5.0 and administered using a dose volume of 10 mL/kg. Mice (N = 6 serially sampled) received fosmetpantotenate as a single oral dose at 700 mg/kg and monkeys received a single oral dose at either 100 mg/kg (N = 4 serially sampled) or 300 mg/kg (N = 2 serially sampled).
Microdialysis: On the morning of the microdialysis experiment, a MetaQuant probe was inserted into the guide shaft targeting the head of the caudate nucleus and perfused at a rate of 0.15 μL/min aCSF containing 0.2% (w/v) BSA, with a carrier flow of 0.8 μL/min of ultrapure water.
A single 30 min pre-dose basal dialysate sample was collected from mice over -0.5 to 0 h, and three 30 min basal samples from monkeys over -1.5 to 0 h. Fosmetpantotenate was administered at t = 0, and 30 min dialysate samples were collected for an additional 4 h for mice and 3 h for monkeys.
Sample preparation for mouse dialysate samples: Concentrations of fosmetpantotenate, PA, and PPA in mouse dialysate were determined by Nextcea, Inc, Woburn, MA, using LC-MS/MS. Standard curves and QC samples containing fosmetpantotenate (D1 and D2) and the surrogate analytes for PA and PPA (^15N/^13C3-PA and ^15N/^13C3-PPA) were prepared fresh in 0.1% formic acid in water. Frozen study mouse dialysate samples were thawed in ice/water bath. Standards, QC samples, and thawed study dialysate samples (20 μL) were mixed with 20 μL 0.1% formic acid in water containing internal standard (50 ng/mL of ^15N/^13C3-fosmetpantotenate) and analyzed by LC-MS/MS.
LC-MS/MS analysis for mouse dialysate samples: Concentrations of fosmetpantotenate, PA, and PPA in dialysate from mice were determined by using LC-MS/MS conditions described for blood PK analysis by Nextcea, except dialysate samples were analyzed using an ACIEX API 5000 and flow rate was increased to 0.6 mL/min.
Quantitation of in vivo samples: Peak areas were integrated using Analyst software (AB Sciex, Concord, Ontario, Canada). Calibration curves for all blood samples from mouse and rat PK studies and mouse dialysate samples were prepared by plotting the analyte to internal standard (^15N/^13C3-fosmetpantotenate) peak area ratio vs concentration.

[4] = Metabolic stability in rat whole blood; type: in vitro ADME; conditions: for Percentage Remaining: rat whole blood, replicates 1 and 2, listed as Fosmetpantotenate Total
Procedure: as §1
Bioanalysis for determinations of analyte stability: Samples were analyzed using a benchtop tandem quadrupole detector (TQD) mass spectrometer (Waters Ltd, Centennial Park, Hertfordshire). […] Suitable retention and peak shape with separation of the 2 diastereomers were obtained. The chromatography column was a Phenomenex-Kinetex XB C18 (2.10 x 50 mm; 2.6 μm), with a 0.7 mL/min flow rate and a 2 μL injection volume. […] The gradient was initiated with 20% B and increased linearly, reaching 40% B at 0.6 min, followed by 50% B at 0.8 min and by 95% B at 0.9 min. Conditions were kept isocratic through 1.2 min, returned to starting conditions (20% B) at 1.25 min, and maintained at 20% B through 1.5 min before the next injection. Since fosmetpantotenate is a mixture of diastereomers which are resolved chromatographically, the fosmetpantotenate MRM area corresponds to the sum of the MRM areas of the individual diastereomers.
The percent of compound remaining was determined from the MRM area response in each sample relative to that in the T = 0 samples (normalized for internal standard). Natural log plots of the percent compound remaining over time were used to determine the t½ of compound disappearance using the relationship t½ = -0.693/λ, where λ is the slope of the natural logarithm of the percent compound remaining vs time curve.

[5] = single oral 700 mg/kg fosmetpantotenate, collection time 0 hr, BQL=8.08 nM
[6] = single oral 700 mg/kg fosmetpantotenate, collection time 0.5 hr, BQL=8.08 nM
[7] = single oral 700 mg/kg fosmetpantotenate, collection time 1 hr, BQL=8.08 nM
[8] = single oral 700 mg/kg fosmetpantotenate, collection time 1.5 hr, BQL=8.08 nM
[9] = single oral 700 mg/kg fosmetpantotenate, collection time 2 hr, BQL=8.08 nM
[10] = single oral 700 mg/kg fosmetpantotenate, collection time 2.5 hr, BQL=8.08 nM
[11] = single oral 700 mg/kg fosmetpantotenate, collection time 3 hr, BQL=8.08 nM
[12] = single oral 700 mg/kg fosmetpantotenate, collection time 3.5 hr, BQL=8.08 nM
[13] = single oral 700 mg/kg fosmetpantotenate, collection time 4 hr, BQL=8.08 nM
[14] = male, C57Bl6, mouse, striatal dialysate (brain microdialysate), other: direct infusion into the striatum via cannula, 125 µg per animal

SMILES: COC(=O)CCNC(=O)[C@H](O)C(C)(C)COP(=O)(N[C@@H](C)C(=O)OC)Oc1ccccc1 (mixture of isomers) [Fosmetpantotenate]
- half-life at 1 μM ([1]; pH 7.4, 1 μM, NADPH): 21 min
- microsomal CLint at 1 μM ([1]; pH 7.4, read-out: intrinsic clearance): 134 µL/min/mg
- change in acetyl tubulin ([2]; 1 μM TID, day 1): statistically significant decrease
- increase in acetyl tubulin ([2]; 1 μM TID, day 5): ~ 1.6 fold
- Tubulin Acetylation (fold of control) ([2]; 25 μM): 2.32 ± 0.64 fold of control
- Acetyl tubulin level (fold over vehicle) ([2]; 25 µM): 1.86 fold over vehicle and 2.77 ± 0.13 fold over vehicle
- Tubulin Acetylation (fold of control) ([2]; 50 μM): 3.68 ± 1.13 fold of control
- Acetyl tubulin level (fold over vehicle) ([2]; 50 µM): 3.02 fold over vehicle and 3.03 ± 0.05 fold over vehicle and 4.99 ± 0.03 fold over vehicle
- Tubulin Acetylation (fold of control) ([2]; 200 μM): 5.12 ± 2.57 fold of control
- Acetyl tubulin (quantification) ([2]; Experiment 1, DAY 1): 5352.933 and 4967.69
- Acetyl tubulin Normalized (to actin) ([2]; Experiment 1, DAY 1): 1.0
- Acetyl tubulin (quantification) ([2]; Experiment 1, DAY 3): 5869.761 and 6720.347
- Acetyl tubulin Normalized (to actin) ([2]; Experiment 1, DAY 3): 1.2 and 1.5
- Acetyl tubulin (quantification) ([2]; Experiment 1, DAY 5): 9323.933 and 10851.882
- Acetyl tubulin Normalized (to actin) ([2]; Experiment 1, DAY 5): 2.0 and 2.1
- Acetyl tubulin (quantification) ([2]; Experiment 2, DAY 1): 2820.548 and 2422.355
- Acetyl tubulin Normalized (to actin) ([2]; Experiment 2, DAY 1): 1.1 and 1.0
- Acetyl tubulin (quantification) ([2]; Experiment 2, DAY 3): 5646.447 and 4155.426
- Acetyl tubulin Normalized (to actin) ([2]; Experiment 2, DAY 3): 2.6
- Acetyl tubulin (quantification) ([2]; Experiment 2, DAY 5): 4976.426 and 5163.962
- Acetyl tubulin Normalized (to actin) ([2]; Experiment 2, DAY 5): 2.2 and 1.9
- Fosmetpantotenate Total Concentration in Mouse Striatal Dialysate (Corrected for Dilution) [3, 5]: BQL
- Fosmetpantotenate Total Concentration in Mouse Striatal Dialysate (Corrected for Dilution) [3, 6]: BQL
- Fosmetpantotenate Total Concentration in Mouse Striatal Dialysate (Corrected for Dilution) [3, 7]: BQL
- Fosmetpantotenate Total Concentration in Mouse Striatal Dialysate (Corrected for Dilution) [3, 8]: BQL
- Fosmetpantotenate Total Concentration in Mouse Striatal Dialysate (Corrected for Dilution) [3, 9]: BQL
- Fosmetpantotenate Total Concentration in Mouse Striatal Dialysate (Corrected for Dilution) [3, 10]: BQL
- Fosmetpantotenate Total Concentration in Mouse Striatal Dialysate (Corrected for Dilution) [3, 11]: BQL
- Fosmetpantotenate Total Concentration in Mouse Striatal Dialysate (Corrected for Dilution) [3, 12]: BQL
- Fosmetpantotenate Total Concentration in Mouse Striatal Dialysate (Corrected for Dilution) [3, 13]: BQL
- Fosmetpantotenate Total Concentration in Mouse Striatal Dialysate (Corrected for Dilution) ([3]; single oral dose (so in the source) 125 µg fosmetpantotenate per animal, collection time 0 hr): 0.1306 µM and 0.109 µM and 0.0833 µM and 0.3107 µM and 0.3579 µM and 0.2168 µM and 0.4624 µM
- Fosmetpantotenate Total Concentration in Mouse Striatal Dialysate (Corrected for Dilution) ([3]; single oral dose (so in the source) 125 µg fosmetpantotenate per animal, collection time 0.5 hr): 27.5961 µM and 228.5933 µM and 5852.2469 µM and 2389.398 µM and 1463.0617 µM and 6013.9111 µM and 2121.0353 µM
- Fosmetpantotenate Total Concentration in Mouse Striatal Dialysate (Corrected for Dilution) ([3]; single oral dose (so in the source) 125 µg fosmetpantotenate per animal, collection time 1 hr): 3.7441 µM and 35.9218 µM and 1147.8164 µM and 370.2112 µM and 269.3327 µM and 936.0362 µM and 475.293 µM
- Fosmetpantotenate Total Concentration in Mouse Striatal Dialysate (Corrected for Dilution) ([3]; single oral dose (so in the source) 125 µg fosmetpantotenate per animal, collection time 1.5 hr): 0.2457 µM and 3.8638 µM and 77.1139 µM and 16.3443 µM and 13.2241 µM and 54.6749 µM and 52.7026 µM
- Fosmetpantotenate Total Concentration in Mouse Striatal Dialysate (Corrected for Dilution) ([3]; single oral dose (so in the source) 125 µg fosmetpantotenate per animal, collection time 2 hr): 0.2142 µM and 1.3919 µM and 11.6398 µM and 2.8307 µM and 6.9839 µM and 18.3812 µM and 13.5798 µM
- Fosmetpantotenate Total Concentration in Mouse Striatal Dialysate (Corrected for Dilution) ([3]; single oral dose (so in the source) 125 µg fosmetpantotenate per animal, collection time 2.5 hr): 0.2094 µM and 0.4624 µM and 4.0416 µM and 0.9538 µM and 6.8061 µM and 14.469 µM and 7.8892 µM
- Fosmetpantotenate Total Concentration in Mouse Striatal Dialysate (Corrected for Dilution) ([3]; single oral dose (so in the source) 125 µg fosmetpantotenate per animal, collection time 3 hr): 0.1664 µM and 0.2839 µM and 1.9869 µM and 1.0929 µM and 4.1402 µM and 11.268 µM and 3.6164 µM
- Fosmetpantotenate Total Concentration in Mouse Striatal Dialysate (Corrected for Dilution) ([3]; single oral dose (so in the source) 125 µg fosmetpantotenate per animal, collection time 3.5 hr): 0.1305 µM and 0.2331 µM and 1.7056 µM and 0.6693 µM and 3.2575 µM and 11.9147 µM and 1.9173 µM
- Fosmetpantotenate Total Concentration in Mouse Striatal Dialysate (Corrected for Dilution) ([3]; single oral dose (so in the source) 125 µg fosmetpantotenate per animal, collection time 4 hr): 0.1387 µM and 0.2171 µM and 1.4129 µM and 0.5497 µM and 2.2649 µM and 9.8939 µM and 1.5099 µM
- concentration at 0 h [3, 14]: 0.239 µM
- concentration at 0.5 h [3, 14]: 2590 µM
- concentration at 1 h [3, 14]: 463 µM
- concentration at 1.5 h [3, 14]: 31.2 µM
- concentration at 2 h [3, 14]: 7.86 µM
- concentration at 2.5 h [3, 14]: 4.98 µM
- concentration at 3 h [3, 14]: 3.22 µM
- concentration at 3.5 h [3, 14]: 2.83 µM
- concentration at 4 h [3, 14]: 2.28 µM
- Fosmetpantotenate Total Concentration in Mouse Striatal Dialysate (Corrected for Dilution), Mean [3, 5]: BQL
- Fosmetpantotenate Total Concentration in Mouse Striatal Dialysate (Corrected for Dilution), Mean [3, 6]: BQL
- Fosmetpantotenate Total Concentration in Mouse Striatal Dialysate (Corrected for Dilution), Mean [3, 7]: BQL
- Fosmetpantotenate Total Concentration in Mouse Striatal Dialysate (Corrected for Dilution), Mean [3, 8]: BQL
- Fosmetpantotenate Total Concentration in Mouse Striatal Dialysate (Corrected for Dilution), Mean [3, 9]: BQL
- Fosmetpantotenate Total Concentration in Mouse Striatal Dialysate (Corrected for Dilution), Mean [3, 10]: BQL
- Fosmetpantotenate Total Concentration in Mouse Striatal Dialysate (Corrected for Dilution), Mean [3, 11]: BQL
- Fosmetpantotenate Total Concentration in Mouse Striatal Dialysate (Corrected for Dilution), Mean [3, 12]: BQL
- Fosmetpantotenate Total Concentration in Mouse Striatal Dialysate (Corrected for Dilution), Mean [3, 13]: BQL
- Cmax ([3]; striatal dialysate, fosmetpantotenate 700 mg/kg PO, analyte = label, not baseline-adjusted): <LLOQ
- half-life at 5 μM ([4]; rat blood, 5 μM, 37°C, 60 min): < 5 min
- Percentage Remaining ([4]; 5 min): 6% and 1%
- Percentage Remaining ([4]; 15 min): 0% and 8%
- Percentage Remaining ([4]; 60 min): 0%
